Assay results: patent US9828375B2, “4-position substituted pyrazolopyrimidine derivative, and use thereof in drug preparation” (Guangxi Wuzhou Pharmaceuticals (Group) Co., Ltd., priority 2012, dated 2017)
Read-outs that look alike come from different tables or passages of the source.

What was measured:
Assay type in all cases: cell-based
[1] = test system: human leukemia cell line MV4-11; test: In vitro tumor cell proliferation inhibition (MTT): MV4-11
Source text: (§1) The purpose of the experiment was to test the inhibition activity of the compounds of the invention for in vitro human tumor cell proliferation by the methyl thiazolyl tetrazolium (MTT) colorimetry.
(§2) Main reagents: RPMI-1640, fetal bovine serum, pancreatin, etc. were purchased from Gibco BRL Company (Invitrogen Corporation, USA) and IMDM medium that was purchased from American Type Culture Collection (ATCC). Methyl thiazolyl tetrazolium (MTT) and dimethyl sulfoxide (DMSO) were products from Sigma Company (USA). Pyrazolopyrimidine derivatives were composed by the inventor. During in vitro experiment, 100% DMSO was prepared into 10 mM storage solution, the solution was stored in a refrigerator at −20° C. for future use, and was diluted to the required concentration with complete culture solution before use.
(§3) Cell line and culture: Human leukemia cell line MV4-11, Jurkat, K562, human thyrophyma cell line TT, human gastric carcinoma cell line MKN-45, human malignant melanoma cell lines A375 and A875, human pancreatic carcinoma cell line panc-1, human cervical carcinoma cell line HELA, human colorectal carcinoma cell line HCT116, etc. were purchased from American type culture collection and were preserved by this laboratory. All leukemia cell lines (except MV4-11), gastric carcinoma cell lines and thyrophyma cell lines were cultured in RPMI-1640 complete medium containing 10% fetal bovine serum, 100 U/mL penicillin and 100 μg/mL streptomycin at 37° C. in 5% CO2. The remaining cell lines were cultured in DMEM complete medium containing 10% fetal bovine serum (containing 20% MV4-11 cell), 100 U/mL penicillin and 100 µg/mL streptomycin at 37° C. in 5% CO2.
(§4) Cell suspension with cell concentration of 1-2×10^4/mL was adjusted with the complete cell medium and inoculated in a 96-well plate, with each well filled with 200 μl cell suspension that was cultured overnight. On the next day, supernatant was sucked and abandoned (supernatant was sucked upon centrifugation of suspension cells), and then cells were processed with test compounds at gradient concentrations respectively. Meanwhile, a negative control group free from drug and a solvent control group with equal volume were set, and the DMSO concentration was 0.1%. Each dose group was provided with three wells and cultured at 37° C. in 5% CO2. After 72 hours, 20 μl 5 mg/mL MTT reagent was added to each well, and cultured for another 2 to 4 hours, the supernatant was abandoned; 150 μL DMSO was added to each well again, vibrated and mixed evenly for 15 minutes; the absorbance (A) values (proportional to living cell amount) were determined with a microplate reader (λ=570 nm) and averaged. […] Experiment was repeated for 3 times at least. Experimental data were expressed with means, data statistics were tested by t, and P<0.05 means that difference has a statistical significance. The cell proliferation inhibition effects of all compounds as follows are expressed by IC50 or inhibition rate.

[2] = test system: human pancreatic carcinoma cell line panc-1; test: In vitro tumor cell proliferation inhibition (MTT): panc-1
Source text: as §1, §2, §3, §4

[3] = test system: human leukemia cell line Jurkat; test: In vitro tumor cell proliferation inhibition (MTT): Jurkat; conditions: 72 hours
Source text: as §1, §2, §3, §4

[4] = test system: human colorectal carcinoma cell line HCT116; test: In vitro tumor cell proliferation inhibition (MTT): HCT116
Source text: as §1, §2, §3, §4

[5] = Homo sapiens, HCT-116, 72 hours
[6] = 72 hours, read-out: Proliferation inhibition activity (IC50) HCT 116

Compound	IC50 ([1]; Homo sapiens, MV4-11, 72 h)	IC50 ([2]; Homo sapiens, PANC-1, 72 hours)	IC50 ([3]; Homo sapiens, Jurkat)	IC50 [4, 5]	IC50 ([1]; 72 hours)	IC50 ([2]; 72 hours)	IC50 [3]	IC50 [4, 6]
O=C(Nc1ccc(C(F)(F)F)cc1)Nc1ccc(Oc2ncnc3[nH]ncc23)c(F)c1 [4a-9, 1-(4-((1H-pyrazolopyrimidine-4-yl)oxy)-3-fluorophenyl)-3-(4-(trifluoromethyl)phenyl)urea]					0.043 µM	2.31 µM	< 50 µM	4.56 µM
O=C(Nc1ccc(Oc2ncnc3[nH]ncc23)cc1)Nc1ccc(C(F)(F)F)cc1 [4a-1]	0.005 µM	< 50 µM	< 50 µM	< 50 µM				
CC(C)(C)c1cc(NC(=O)Nc2ccc(Oc3ncnc4[nH]ncc34)cc2)n(-c2ccccc2)n1 [4a-24]					0.0004 µM	< 50 µM		6.75 µM
O=C(Nc1ccc(Oc2ncnc3[nH]ncc23)cc1)Nc1cccc(C(F)(F)F)c1 [4a-6]	0.004 µM	< 50 µM	4.28 µM	< 50 µM				
CC(C)c1cccc(NC(=O)Nc2ccc(Oc3ncnc4[nH]ncc34)c(F)c2)c1 [4a-7, 1-(4-((1H-pyrazolopyrimidine-4-yl)oxy)-3-fluorophenyl)-3-(3-isopropylphenyl)urea]					0.011 µM	< 50 µM	< 50 µM	< 50 µM
C[C@H](NC(=O)Nc1ccc(Oc2ncnc3[nH]ncc23)cc1)c1ccccc1 [4a-18, (S)-1-(4-((1H-pyrazolopyrimidine-4-yl)oxy)phenyl)-3-(1-phenethyl)urea]					0.112 µM	< 50 µM	3 to 10 µM	< 50 µM
1-(4-((1H-pyrazolopyrimidine-4-yl)oxy)phenyl)-3-(methylcyclohexyl)urea [4a-20]					0.363 µM	< 50 µM	< 50 µM	< 50 µM
C[C@@H](NC(=O)Nc1ccc(Oc2ncnc3[nH]ncc23)cc1)c1ccccc1 [4a-19, (R)-1-(4-((1H-pyrazolopyrimidine-4-yl)oxy)phenyl)-3-(1-phenethyl)urea]					0.124 µM	< 50 µM		< 50 µM
CC(C)(C)c1cc(NC(=O)Nc2ccc(Oc3ncnc4[nH]ncc34)cc2)on1 [4a-25]					0.0003 µM	3 to 10 µM	< 50 µM	3 to 10 µM
O=C(Nc1ccccc1)Nc1ccc(Oc2ncnc3[nH]ncc23)cc1 [4a-15, 1-(4-((1H-pyrazolopyrimidine-4-yl)oxy)phenyl)-3-phenylurea]					0.32 µM	< 50 µM	< 50 µM	< 50 µM
O=C(Nc1ccc(Oc2ncnc3[nH]ncc23)cc1)Nc1ccc(Cl)c(C(F)(F)F)c1 [4a-2]					0.003 µM	< 50 µM	8.72 µM	< 50 µM
O=C(Nc1ccc(Oc2ncnc3[nH]ncc23)cc1)Nc1ccc(C(F)(F)F)cc1Cl [4a-13]					0.018 µM	< 50 µM	< 50 µM	< 50 µM
O=C(Nc1ccc(Oc2ncnc3[nH]ncc23)c(F)c1)Nc1ccc(Cl)c(C(F)(F)F)c1 [4a-10, 1-(4-((1H-pyrazolopyrimidine-4-yl)oxy)-3-fluorophenyl)-3-(4-chloro-3-(trifluoromethyl)phenyl)urea]					0.009 µM	< 50 µM	9.93 µM	< 50 µM
1-(4-((1H-pyrazolopyrimidine-4-yl)oxy)-3-fluorophenyl)-3-(3-trifluoromethoxy)phenyl)urea [4a-8]					0.053 µM	4.65 µM	< 50 µM	5.7 µM
O=C(Nc1ccc(Oc2ncnc3[nH]ncc23)cc1)Nc1ccc(N2CCOCC2)cc1 [4a-16, 1-(4-((1H-pyrazolopyrimidine-4-yl)oxy)phenyl)-3-(4-morpholinylphenyl)urea]	0.089 µM	< 50 µM	< 50 µM	< 50 µM				
O=C(Nc1ccc(Oc2ncnc3[nH]ncc23)cc1)Nc1cc(C(F)(F)F)cc(C(F)(F)F)c1 [4a-12, 1-(4-((1H-pyrazolopyrimidine-4-yl)oxy)phenyl)-3-(3,5-bis(trifluoromethyl)phenyl)urea]					0.017 µM	< 50 µM	< 50 µM	< 50 µM

The next lines start with the values.

IC50 ([1]; Homo sapiens, MV4-11, 72 h)	IC50 ([2]; Homo sapiens, PANC-1, 72 hours)	IC50 ([3]; Homo sapiens, Jurkat)	IC50 [4, 5]	IC50 ([1]; 72 hours)	IC50 ([2]; 72 hours)	IC50 [3]	IC50 [4, 6]	Compound
< 1 µM	< 50 µM	< 50 µM	< 50 µM					CC(C)n1ncc2c(Oc3ccc(NC(=O)Nc4cc(C(C)(C)C)on4)cc3)ncnc21 [5a-4, 1-(5-tert-butylisoxazol-3-yl)-3-(4-(1-isopropyl-(1H-pyrazolopyrimidine-4-yl)oxy)phenyl)urea]
0.0012 µM	< 50 µM	3 to 10 µM	< 50 µM					O=C(Nc1ccc(Oc2ncnc3[nH]ncc23)cc1)Nc1cc(C(F)(F)F)on1 [4a-28]
				< 1 µM	< 50 µM	< 50 µM	< 50 µM	CC(C)(C)c1cc(NC(=O)Nc2ccc(Sc3ncnc4[nH]ncc34)cc2)no1 [4c-3, 1-(4-(1H-pyrazolopyrimidine-4-sulfydryl)phenyl)-3-(5-tert-butylisoxazol-3-yl)urea]
				0.0004 µM	3 to 10 µM	6.1 µM		CC(C)(C)c1cc(NC(=O)Nc2ccc(Oc3ncnc4[nH]ncc34)c(F)c2)no1 [4a-31]
0.0003 µM	3 to 10 µM	3 to 10 µM	3 to 10 µM					CC(C)(C)c1cc(NC(=O)Nc2ccc(Oc3ncnc4[nH]ncc34)cc2)no1 [4a-26]
1.65 µM	< 50 µM	< 50 µM	< 50 µM					COc1cccc(NC(=O)Nc2ccc(Nc3ncnc4[nH]ncc34)cc2)c1 [4b-3]
< 50 µM	< 50 µM	< 50 µM	< 50 µM					O=C(Nc1cccc(Nc2ncnc3[nH]ncc23)c1)Nc1ccc(F)c(Cl)c1 [4b-1]
0.05 µM								O=C(Nc1ccc(NC(=O)N2C=NC=C3NNC=C32)cc1)Nc1ccc(Cl)c(C(F)(F)F)c1 [4b-5, 1-(4-(1H-pyrazolopyrimidine-4-amido)phenyl)-3-(4-chloro-3-(trifluoromethyl)phenyl)urea]
	< 50 µM	< 50 µM	< 50 µM	8.03 µM				C[C@@H](NC(=O)Nc1ccc(Nc2ncnc3[nH]ncc23)cc1)c1ccccc1 [4b-2, (R)-1-(4-(1H-pyrazolopyrimidine-4-amido)phenyl)-3-(1-phenethyl)urea]
				0.039 µM	< 50 µM	< 50 µM		O=C(Nc1ccc(Sc2ncnc3[nH]ncc23)cc1)Nc1cccc(C(F)(F)F)c1 [4c-2]
0.667 µM	< 50 µM	< 50 µM	< 50 µM					Cc1cc(C)c(NC(=O)Nc2ccc(NC(=O)N3C=NC=C4NNC=C43)cc2)c(C)c1 [4b-7, 1-(4-(1H-pyrazolopyrimidine-4-amido)phenyl)-3-(2,4,6-trimethylphenyl)urea]
				2.05 µM	< 50 µM	< 50 µM	< 50 µM	C[C@H](NC(=O)Nc1ccc(Nc2ncnc3[nH]ncc23)cc1)c1ccccc1 [4b-4]
0.012 µM	< 50 µM	< 50 µM						O=C(Nc1ccc(Sc2ncnc3[nH]ncc23)cc1)Nc1ccc(C(F)(F)F)cc1 [4c-1]
0.729 µM	< 50 µM	< 50 µM	< 50 µM					COc1ccc(NC(=O)Nc2ccc(NC(=O)N3C=NC=C4NNC=C43)cc2)cc1 [4b-6, 1-(4-(1H-pyrazolopyrimidine-4-amido)phenyl)-3-(4-methoxyphenyl)urea]
